Structures can show the parent of a compound that is named as a salt.
Tests used:
[1] = biological target: T1, L-type calcium channels in A10 cells (Rattus norvegicus, UniProt P22002); test: L-type Ca2+ channel blocking potency in A10 cells (FLIPR); type: cell-based; details: read-out: FLPA10 IC50
T1 construct: which endogenously expresses L-type calcium channels; host or cells: A10 rat embryonic thoracic aorta smooth muscle cells
Method: Measurement of L-type Ca^2+ Channel Blocking Potencies of Compounds in A10 Cells
Calcium flux through voltage-sensitive calcium channels was assessed by time-resolved monitoring of the fluorescence of pre-loaded calcium-sensitive dyes using FLIPR, a fluorescent image plate reader (Molecular Devices Co.). The A10 smooth muscle cell line derived from embryonic thoracic aorta of the DBIX rat (ATCC, CRL-1476) which endogenously expresses L-type calcium channels. The growth media for A10 cells was Ham's F12/DME high glucose (Irvine Scientific, 9052), supplemented with 20% fetal bovine serum (HyClone Labs, A-1115-L), and 1% each of L-glutamine and antibiotic-antimycotic (same source as above).
Cells were grown to confluency and replated on black-sided 96-well plates (Costar, 3603) for use in FLIPR. Two days after replating, growth media was removed and cells were loaded at 37° C. with 100 μL media containing 1 μM Oregon Green 488 Bapta-1 dye (Molecular Probes, O-6807) for 1 to 3 hours. The dye-containing media was then washed away with buffer (composition in mM: 1.25 CaCl2, 1.2 MgSO4, 11 glucose, 10 HEPES, 3.0 KCl, 137.0 NaCl, pH 7.4 with Tris base) in a Denley Cellwash (Labsystems, CW018B). The residual buffer volume was adjusted to 50 μL. A 5 minute drug-pre-incubation period at 35° C. was initiated when 50 μL of drug-containing buffer was pipetted into the cell plate with the 96-well pipettor integrated in the FLIPR apparatus. Fluorescent counts were monitored at 20 second intervals for 360 seconds, beginning 60 seconds prior to the delivery of drug-containing buffer. Following drug addition, 100 μL aliquots of a high K^+, depolarizing stimulus (composition in mM: 1.25 CaCl2, 1.2 MgSO4, 11 glucose, 10 HEPES, 140.0 KCl, pH 7.4 with Tris base) were added to each well, and fluorescence was monitored at 1 second intervals for 120 seconds beginning 10 seconds prior to the stimulus addition. CCD camera exposure time was 0.4 seconds, laser excitation was at 488 nm with a power of 0.2-0.5W, and a 510 to 560 nm bandpass interference filter preceded the camera.
Data was analyzed as a summation of fluorescent counts above basal during the stimulation period (an approximation of area under the curve), after normalizing the data with a spatial uniformity correction (for variations in laser illumination and cell density) and a negative control correction (zero calcium increase defined as the fluorescence reading in the presence of saturating pharmacologic block of the respective calcium channel). Drug effects were expressed as percent inhibition of fluorescence from an average of 8 K^+-stimulated wells which were pre-treated in the drug incubation period with buffer only. In the A10 cells, the pharmacologic agent used to define zero calcium influx was nitrendipine (RBI, N-144) at a final concentration of 1.0×10^−6 M.

[2] = biological target: T2, N-type calcium channels in IMR-32 cells (Homo sapiens, UniProt Q00975); test: N-type Ca2+ channel blocking potency in IMR-32 cells using Indo-1; type: cell-based; details: for inhibition at 10 µM / inhibition at 1 µM: IMR-32, IMR-32 cells; for inhibition at 10 µM: read-out: IMR32 % blockage at 10 μM; for IC50: IMR-32 cells, estimated from two data points, read-out: IMR32 IC50 (estimated IC50 values based on two data points); for inhibition at 1 µM: read-out: IMR32 % blockage at 1 μM
T2 construct: host or cells: IMR-32 cells differentiated with dibutyryl cAMP and bromodeoxyuridine
T2 sequence (Q00975 whole entry): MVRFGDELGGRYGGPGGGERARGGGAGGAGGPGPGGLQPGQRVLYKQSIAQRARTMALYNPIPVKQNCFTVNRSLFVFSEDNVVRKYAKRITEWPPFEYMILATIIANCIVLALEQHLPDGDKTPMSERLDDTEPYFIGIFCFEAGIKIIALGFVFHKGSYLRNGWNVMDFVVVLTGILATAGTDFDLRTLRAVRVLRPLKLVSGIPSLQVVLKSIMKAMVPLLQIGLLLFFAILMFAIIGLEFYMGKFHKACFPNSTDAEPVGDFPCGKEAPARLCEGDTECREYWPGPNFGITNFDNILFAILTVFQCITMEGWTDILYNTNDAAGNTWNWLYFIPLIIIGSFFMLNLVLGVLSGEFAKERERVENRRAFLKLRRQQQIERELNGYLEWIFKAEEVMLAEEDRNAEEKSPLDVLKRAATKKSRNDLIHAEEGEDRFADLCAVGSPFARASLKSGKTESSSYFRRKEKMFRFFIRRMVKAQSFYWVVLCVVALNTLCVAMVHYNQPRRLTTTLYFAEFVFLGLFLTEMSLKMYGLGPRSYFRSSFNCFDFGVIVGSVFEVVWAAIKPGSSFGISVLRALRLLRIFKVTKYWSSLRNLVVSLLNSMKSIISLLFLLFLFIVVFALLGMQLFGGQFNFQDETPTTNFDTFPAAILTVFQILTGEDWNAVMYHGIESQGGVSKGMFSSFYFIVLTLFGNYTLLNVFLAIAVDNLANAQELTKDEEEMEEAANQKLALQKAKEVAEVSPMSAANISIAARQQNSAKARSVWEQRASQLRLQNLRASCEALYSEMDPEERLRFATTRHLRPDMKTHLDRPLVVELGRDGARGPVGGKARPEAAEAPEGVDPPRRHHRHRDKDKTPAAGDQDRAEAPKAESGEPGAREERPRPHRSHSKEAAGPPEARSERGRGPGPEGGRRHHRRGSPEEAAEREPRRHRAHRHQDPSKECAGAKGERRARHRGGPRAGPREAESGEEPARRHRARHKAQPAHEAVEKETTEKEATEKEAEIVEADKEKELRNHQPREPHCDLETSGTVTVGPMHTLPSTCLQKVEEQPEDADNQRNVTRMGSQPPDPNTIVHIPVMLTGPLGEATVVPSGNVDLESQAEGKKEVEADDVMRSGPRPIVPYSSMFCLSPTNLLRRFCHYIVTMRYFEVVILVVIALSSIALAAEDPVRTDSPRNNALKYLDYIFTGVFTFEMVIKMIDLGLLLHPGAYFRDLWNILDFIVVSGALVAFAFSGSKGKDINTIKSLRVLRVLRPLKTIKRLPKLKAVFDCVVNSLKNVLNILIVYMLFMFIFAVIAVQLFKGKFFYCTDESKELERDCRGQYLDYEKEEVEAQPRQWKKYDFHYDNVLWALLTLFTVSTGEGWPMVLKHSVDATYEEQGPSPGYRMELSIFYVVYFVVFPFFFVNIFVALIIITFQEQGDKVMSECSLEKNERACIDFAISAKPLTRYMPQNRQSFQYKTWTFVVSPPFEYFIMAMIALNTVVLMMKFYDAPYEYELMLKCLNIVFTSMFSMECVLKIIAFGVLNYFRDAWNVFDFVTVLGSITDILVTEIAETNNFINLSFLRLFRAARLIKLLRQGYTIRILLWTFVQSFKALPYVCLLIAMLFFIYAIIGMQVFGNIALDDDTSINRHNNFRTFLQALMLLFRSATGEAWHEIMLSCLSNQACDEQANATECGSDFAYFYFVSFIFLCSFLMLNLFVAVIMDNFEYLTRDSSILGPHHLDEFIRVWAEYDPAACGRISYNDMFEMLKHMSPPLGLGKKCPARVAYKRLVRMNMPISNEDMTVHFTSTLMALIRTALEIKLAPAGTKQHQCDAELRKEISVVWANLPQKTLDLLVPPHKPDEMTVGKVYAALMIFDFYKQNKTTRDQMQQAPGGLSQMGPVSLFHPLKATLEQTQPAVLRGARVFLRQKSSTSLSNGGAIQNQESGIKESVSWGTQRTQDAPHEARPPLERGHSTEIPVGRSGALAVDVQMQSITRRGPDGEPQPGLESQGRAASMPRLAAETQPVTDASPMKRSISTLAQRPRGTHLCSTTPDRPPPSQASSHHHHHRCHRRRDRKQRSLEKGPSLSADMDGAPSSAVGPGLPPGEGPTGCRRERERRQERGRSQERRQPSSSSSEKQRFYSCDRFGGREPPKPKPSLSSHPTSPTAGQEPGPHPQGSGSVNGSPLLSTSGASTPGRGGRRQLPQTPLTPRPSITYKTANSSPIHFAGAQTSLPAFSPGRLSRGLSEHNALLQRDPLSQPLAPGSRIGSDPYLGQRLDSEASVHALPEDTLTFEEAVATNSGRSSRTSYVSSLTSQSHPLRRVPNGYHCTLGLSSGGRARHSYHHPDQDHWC
T2 sequence (P54289 25-956 partner limits assumed): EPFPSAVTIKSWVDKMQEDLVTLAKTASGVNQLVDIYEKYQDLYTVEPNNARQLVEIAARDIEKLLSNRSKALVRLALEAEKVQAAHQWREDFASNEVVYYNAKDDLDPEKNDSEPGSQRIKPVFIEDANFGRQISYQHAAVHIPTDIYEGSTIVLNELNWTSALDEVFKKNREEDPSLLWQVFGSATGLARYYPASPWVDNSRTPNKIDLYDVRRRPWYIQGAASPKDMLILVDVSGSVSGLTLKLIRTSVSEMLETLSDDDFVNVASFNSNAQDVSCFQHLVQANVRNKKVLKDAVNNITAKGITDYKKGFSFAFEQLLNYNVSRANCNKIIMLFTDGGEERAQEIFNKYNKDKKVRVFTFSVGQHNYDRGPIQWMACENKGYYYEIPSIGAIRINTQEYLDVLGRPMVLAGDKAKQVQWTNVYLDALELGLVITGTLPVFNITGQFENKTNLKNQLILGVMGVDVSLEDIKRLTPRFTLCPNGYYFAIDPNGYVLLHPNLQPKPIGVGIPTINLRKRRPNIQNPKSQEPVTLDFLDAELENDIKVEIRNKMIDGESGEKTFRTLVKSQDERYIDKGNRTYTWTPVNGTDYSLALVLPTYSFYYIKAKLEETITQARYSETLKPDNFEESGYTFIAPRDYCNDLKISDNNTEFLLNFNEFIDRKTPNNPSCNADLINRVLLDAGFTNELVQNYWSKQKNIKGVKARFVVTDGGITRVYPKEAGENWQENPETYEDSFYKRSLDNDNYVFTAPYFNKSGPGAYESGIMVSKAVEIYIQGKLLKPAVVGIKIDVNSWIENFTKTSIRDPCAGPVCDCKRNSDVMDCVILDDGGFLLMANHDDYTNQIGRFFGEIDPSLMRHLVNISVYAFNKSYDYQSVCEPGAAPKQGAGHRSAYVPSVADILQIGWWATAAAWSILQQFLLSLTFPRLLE
T2 sequence (P54289 957-1103 partner limits assumed): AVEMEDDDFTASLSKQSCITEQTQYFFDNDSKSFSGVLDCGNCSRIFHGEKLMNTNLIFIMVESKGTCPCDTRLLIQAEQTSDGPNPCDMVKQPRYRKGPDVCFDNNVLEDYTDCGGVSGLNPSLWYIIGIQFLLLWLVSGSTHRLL
T2 sequence (Q02641 whole entry partner): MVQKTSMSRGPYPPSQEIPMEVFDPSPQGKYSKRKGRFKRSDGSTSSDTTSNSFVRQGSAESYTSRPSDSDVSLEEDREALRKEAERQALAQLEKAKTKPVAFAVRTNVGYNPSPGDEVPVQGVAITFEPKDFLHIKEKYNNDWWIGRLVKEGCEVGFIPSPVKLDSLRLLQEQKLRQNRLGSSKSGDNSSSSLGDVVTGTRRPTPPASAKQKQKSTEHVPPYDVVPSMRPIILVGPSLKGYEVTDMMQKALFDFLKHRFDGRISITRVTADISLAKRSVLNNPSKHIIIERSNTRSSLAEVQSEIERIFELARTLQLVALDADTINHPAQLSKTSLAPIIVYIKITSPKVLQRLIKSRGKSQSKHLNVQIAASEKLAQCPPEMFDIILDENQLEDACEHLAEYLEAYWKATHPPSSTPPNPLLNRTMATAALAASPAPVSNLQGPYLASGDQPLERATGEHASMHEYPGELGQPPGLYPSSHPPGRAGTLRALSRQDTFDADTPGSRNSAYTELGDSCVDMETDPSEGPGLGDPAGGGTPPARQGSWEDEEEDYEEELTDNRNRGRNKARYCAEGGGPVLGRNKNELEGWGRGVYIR
Method: Measurement of N-type Ca^2+ Channel Blocking Potencies of Compounds in IMR-32 Cells Using the Fluorescent Ca^2+ Indicator Indo-1
IMR-32 cells are a human tumoral cell line of neural origin. […] Calcium flux into these cells may be induced by stimulation with elevated potassium concentrations. The L-channel component of calcium flux may be blocked by adding 5 μM nitrendipine. The remaining component of calcium entry into the IMR-32 cells is due to calcium flux through N-type calcium channels. Intracellular calcium concentrations are measured using the fluorescent calcium indicator Indo-1. The effect of drug concentration on calcium uptake is studied.
The IMR-32 cell line was obtained from the American Type Culture Collection (Rockville, Md.). Cells were grown in Eagle's Minimum Essential Medium with Earle's salts supplemented with 10% fetal bovine serum, 2 mM L-Gln and antibiotic/antimycotic mixture (Gibco). At approximately 80% confluency, differentiation was induced by the addition of 1 mM dibutyryl cAMP and 2.5 μM bromodeoxyuridine to the medium. After 7 to 13 days of differentiation, cells were detached using 0.5 mM EDTA and loaded with 5 μM Indo-1 acetoxymethyl ester (Molecular Probes, Eugene, Oreg.) at 30° C. for 45 minutes. Loaded cells were washed twice, resuspended (˜10^7 cells/mL) in assay buffer (10 mM HEPES/Tris pH 7.4 in Hank's Balanced Salt Solution without bicarbonate or phenol red containing 0.5% bovine serum albumin) and kept on ice until use. Fluorescence measurements were carried out in a Photon Technology International (PTI, South Brunswick, N.J.) Model RF-F3004 spectrofluorometer with dual emission monochromators using excitation at 350 nm and emission at 400 and 490 nm. The instrument was equipped with a thermostated cuvette holder with stirring capabilities as well as with a computer-controlled pump which allowed for reagent addition during measurement. Instrument control and data collection was done by PTI's OSCAR software running on an IBM compatible computer. Different concentrations of the test compounds (60 μL in dimethyl sulfoxide) were added to 5.94 mL of assay buffer containing approximately 3×10^6 loaded cells, and 5 μM Nitrendipine (in 30 μL EtOH) to block L-type Ca^2+ channels. Samples were incubated for 10 minutes at 30° C. and the aliquot into three 10×10 mm disposable acrylic cuvettes. Emission signals at 400 and 490 nm were acquired from each cuvette at 30° C. for 50 seconds. At 20 seconds after the start of reading, cells were depolarized by the addition of 160 μL of stimulation solution (1 M KCl, 68 mM CaCl2) to the cuvette via the computer-controlled pump. Ratio of dual emission signals (400/490 nm), which is proportional to intracellular Ca^2+ concentration, was plotted against time, and the difference between maximal response after stimulation and basal value (before stimulation) was determined. Values obtained in this way were plotted as a function of drug concentration. IC50 values of test compounds were calculated by fitting a four-parameter logistic function to the data using the least squares method.

IC50 [1] | inhibition at 10 µM [2] | IC50 [2] | inhibition at 1 µM [2] | Compound
290 nM | – | – | – | CC(C)C[C@@H](NC(=O)N1CCCCCC1)C(=O)NCCCC(c1ccc(F)cc1)c1ccc(F)cc1 [Example 2, (R)-Azepane-1-carboxylic acid {1-[4,4-bis-(4-fluoro-phenyl)-butylcarbamoyl]-3-methyl-butyl}-amide]
680 nM | 83% | – | – | CC(C)N[C@H](C(=O)NCCCC(c1ccc(F)cc1)c1ccc(F)cc1)C(C)C [Example 65, (S)-N-[4,4-Bis-(4-fluoro-phenyl)-butyl]-2-isopropylamino-3-methyl-butyramide]
800 nM | – | 990 nM | – | CC(C)C[C@@H](C(=O)NCCC(c1ccccc1)c1ccccc1)N(C)C1CCCCC1 [Example 25, (S)-2-(Cyclohexyl-methyl-amino)-4-methyl-pentanoic acid (3,3-diphenyl-propyl)-amide monohydrochloride]
270 nM | 94% | – | 71% | CC(C)C[C@@H](C(=O)NCCCC(c1ccc(F)cc1)c1ccc(F)cc1)N(C)C1CCCCC1 [Example 21, (S)-2-(Cyclohexyl-methyl-amino)-4-methyl-pentanoic acid [4,4-bis-(4-fluoro-phenyl)-butyl]-amide monohydrochloride]
570 nM | – | 2000 nM | – | CC(C)C[C@H](NC1CCOCC1)C(=O)NCCCC(c1ccc(F)cc1)c1ccc(F)cc1 [Example 18, (S)-4-Methyl-2-(tetrahydro-pyran-4-ylamino)-pentanoic acid [4,4-bis-(4-fluoro-phenyl)-butyl]-amide]
1000 nM | – | 3200 nM | – | CC(C)C[C@H](NC(C)C)C(=O)N1CCN(C(c2ccc(F)cc2)c2ccc(F)cc2)CC1 [Example 49, (S)-1-{4-[Bis-(4-fluoro-phenyl)-methyl]-piperazin-1-yl}-2-isopropylamino-4-methyl-pentan-1-one monohydrochloride]
420 nM | 99% | – | – | CC(C)C[C@H](NCc1ccccc1)C(=O)N1CCN(C(c2ccc(F)cc2)c2ccc(F)cc2)CC1 [Example 62, (S)-2-Benzylamino-1-{4-[bis-(4-fluoro-phenyl)-methyl]-piperazin-1-yl}-4-methyl-pentan-1-one]
530 nM | 97% | – | – | CC(C)C[C@@H](C(=O)NCCCC(c1ccc(F)cc1)c1ccc(F)cc1)N(C)C(C)C [Example 68, (S)-2-(Isopropyl-methyl-amino)-4-methyl-pentanoic acid [4,4-bis-(4-fluoro-phenyl)-butyl]-amide]
400 nM | 99% | – | 34% | CC(C)[C@@H](C(=O)NCCCC(c1ccc(F)cc1)c1ccc(F)cc1)N(C)C1CCCCC1 [Example 69, (S)-N-[4,4-Bis-(4-fluoro-phenyl)-butyl]-2-(cyclohexyl-methyl-amino)-3-methyl-butyramide]
470 nM | 92% | – | 25% | CC(C)C[C@@H](C(=O)NCCCC(c1ccc(F)cc1)c1ccc(F)cc1)N(C)C [Example 20, (S)-2-Dimethylamino-4-methyl-pentanoic acid [4,4-bis-(4-fluoro-phenyl)-butyl]-amide monohydrochloride]
360 nM | – | 500 nM | – | CC(C)C[C@@H](CN1CCN(C(c2ccc(F)cc2)c2ccc(F)cc2)CC1)NC(=O)OC(C)(C)C [Example 35, (S)-(1-{4-[Bis-(4-fluoro-phenyl)-methyl]-piperazin-1-ylmethyl}-3-methyl-butyl)-carbamic acid tert-butyl ester]
130 nM | 89% | – | 35% | CC(C)C[C@@H](C(=O)NCCCC(c1ccc(F)cc1)c1ccc(F)cc1)N1CCOCC1 [Example 23, (S)-4-Methyl-2-morpholin-4-yl-pentanoic acid [4,4-bis-(4-fluoro-phenyl)-butyl]-amide monohydrochloride]
660 nM | – | 1100 nM | – | CC(C)C[C@H](NC(C)C)C(=O)NCCCC(c1ccc(F)cc1)c1ccc(F)cc1 [Example 19, (S)-2-Isopropylamino-4-methyl-pentanoic acid [4,4-bis-(4-fluoro-phenyl)-butyl]-amide monohydrochloride]
510 nM | 94% | – | 34% | CCC(C)N[C@H](C(=O)NCCCC(c1ccc(F)cc1)c1ccc(F)cc1)C(C)C (stereo partly drawn) [Example 66, (S)-N-[4,4-Bis-(4-fluoro-phenyl)-butyl]-2-sec-butylamino-3-methyl-butyramide]
630 nM | – | 1890 nM | – | CC(C)C[C@@H](NC(=O)N1CCCCCC1)C(=O)N1CCN(C(c2ccc(F)cc2)c2ccc(F)cc2)CC1 [Example 34, (R)-Azepane-1-carboxylic acid {1-(4-[bis-(4-fluoro-phenyl)-methyl]-piperazine-1-carbonyl}-3-methyl-butyl)-amide]
450 nM | – | 1200 nM | – | CC(C)C[C@@H](C(=O)NCCCC(c1ccc(F)cc1)c1ccc(F)cc1)N(C)C1CCOCC1 [Example 27, (S)-4-Methyl-2-[methyl-(tetrahydro-pyran-4-yl)-amino]-pentanoic acid [4,4-bis-(4-fluoro-phenyl)-butyl]-amide monohydrochloride]
1100 nM | – | – | – | CC(C)C[C@H](NC1CCOCC1)C(=O)N1CCN(C(c2ccc(F)cc2)c2ccc(F)cc2)CC1 [Example 63, (S)-1-{4-[Bis-(4-fluoro-phenyl)-methyl]-piperazin-1-yl}-4-methyl-2-(tetrahydro-pyran-4-ylamino)-pentan-1-one]
1400 nM | – | 2000 nM | – | CC(C)C[C@@H](C(=O)N1CCN(C(c2ccc(F)cc2)c2ccc(F)cc2)CC1)N1CCCCC1 [Example 37, (S)-1-{4-[Bis-(4-fluoro-phenyl)-methyl]-piperazin-1-yl}-4-methyl-2-piperidin-1-yl-pentan-1-one]
